Where two headings read alike, the source gives them in different places.
How the values were obtained:
[1] = test system: rickets-babies
Procedure: Fourty rickets-babies at the age of 3-10 months were randomly divided into 2 groups of 20 babies each. […] Test group II, namely the calcium carbonate group, were administered orally calcium carbonate twice a day in a dosage of one bag each time.
(2) Biochemical examinations of blood. Venous blood of rickets-baby was sampled before and after the beginning of test and serum Ca, P and AKP level were measured and the product of [Ca]×[P] was calculated.
(3) Data processing: All data was statistically analyzed using the method of direct calculation of probability, grouping t-test and pairing t-test.
Considering the difficulty in sampling blood from rickets-babies during the test operation, blood sampling was not performed at the second week after the beginning of the test. Blood sampling was only performed before the test and at the fourth week after the beginning of the test.

[2] = test system: ovariectomized rats with osteoporosis; settings: for Y (flexibility, tenacity): model-control 4.0 ± 1.1; for P (maximum of force at yielding point, femur strength): model-control 6.7 ± 1.2; for S (work to yield or break femur): model-control 11.3 ± 4.7
Procedure: Female rats at the age of 3 months were excised of bilateral ovaries under sterilized condition, and were then fed low-calcium diet and offered with deionized water for 75 days, thus made an osteoporosis model.
Seventy healthy rats were selected and divided randomly into five groups of 14 rats. […] Group 1-5 were administered one time per day and 6 times per week and were also fed low-calcium diet and de-ionized water. The test period was 75 days. When the test was finished, rats were killed by bleeding from bilateral thigh arteries, the separated serum was used for measurement of biochemical parameters such as Ca, P, and AKP and Tr-ACP levels in serum. The bilateral femurs of rats were stripped off and stored in refrigerator. After the measurement of the bone mineral density, the left femur was stored for analysis of biomechanical characteristics. The right femur was stored for analysis of Ca content in femur.
(§4) Three-point bending test was done on the fresh femur iced in refrigerator with a Model WD-1 Electron Universal Test Machine under the following conditions: a span of 2.5 cm, a 25 kg sensor (1/50), a speed of 2 mm/minute. The function of load versus flexibility was recorded by a finction recorder, wherein P represented the maximum of force at yielding point, Y was flexibility indicating the tenacity of materials. K, as the rate of slope, was a rigidity parameter of materials and was associated with the degree of calcification in bone mechanics. S stood for the work to yield or break femur.

[3] = test system: rickets-mice; assay: Preventing rickets in younger mice: serum Ca, AKP, P; assay type: in vivo, mice of Kunming species; settings: for serum Ca / serum P / serum AKP (in Bessey-Loury unit): 60 days; for serum Ca: model 1.55 ± 0.42; for serum P: model 2.23 ± 0.52; for serum AKP (in Bessey-Loury unit): model 101 ± 34
Procedure: (§1) The mice were bred for 60 days under conditions of avoiding light around-the-clock, at a temperature of 20-25° C. and a relative humility of 40-60% while the normal-control group mice were fed ordinary diet and water and were placed in non-dark room.
(§2) The low-calcium diet used in this test was the same as that in Test II but VD in the vitamin mixture was replaced by glucose.
(§3) Some weanling mice were placed in dark room and fed VD -deficient low-calcium diet and drunk de-ionized water for 60 days, thus a ricket model of baby mice was prepared. While other weanling mice were placed in non-dark room and fed ordinary diet and drunk tap water for 60 days, these mice were established as normal-control group.

[4] = Solubility of calcium L-threonate; assay type: physicochemical
[5] = test system: rickets-mice; assay: Preventing rickets in younger mice: body weight, dry weight, ash weight and total calcium content of femur; assay type: in vivo, mice of Kunming species; settings: for dry weight of femur: model 0.099 ± 0.014; for total calcium content: model 24.81 ± 4.36; for ash weight: model 46.62 ± 9.38
Procedure: as §1, §2, §3

[6] = test system: castrated male rats with osteoporosis; settings: for bone mineral density F50: model-control 0.235 ± 0.022; for bone mineral density F20: model-control 0.244 ± 0.025
From the text: (4) Measurement of bone mineral density.

[7] = in vivo; settings: dog, po, 200 mg/kg
[8] = test system: castrated male rats with osteoporosis; settings: for serum Ca: model 1.80 ± 0.37; for serum P: model 2.03 ± 0.48; for AKP level in serum (in Bessey-Loury unit): model 96.7 ± 26.4
Procedure: Serum Ca, P and AKP were measured by a 4010 Automatic Biochemical Analyzer. Serum Ca was determined by calorimetric method using methylthymol blue. Serum P was determined by Mono-Reagent Method. Alkaline phosphatase was determined by method of disodium p-nitrophenylphosphonate (AKP) The tartaric-resistant acidic phosphatase (Tr-ACP) mineral was determined by Piedra procedure. All above reagent-box were available from the Clinical Chemicals Sub-plant of Beijing Chemical Plant.
The pure synthetic low-calcium diet and apparatus used in this test were the same as in test II.

[9] = test system: rickets-mice; assay: Preventing rickets in younger mice: tibia strength (three-point bending); assay type: in vivo, mice of Kunming species; settings: for breaking force (tibia): model 1.12 ± 0.37
Procedure: as §1, §2, §3

[10] = dog, in vivo
[11] = test system: castrated male rats with osteoporosis; settings: for K (calcification of bone): model-control 1.50 ± 0.26; for P (strength of femur): model-control 5.2 ± 1.1; for Y (flexibility, tenacity): model-control 8.0 ± 1.2; for S (work to break the bone): model-control 24.5 ± 7.5
Procedure: as §4
In this test, chemicals were the saine as in test II, animals were male Wistar rats each weighing 150±10 g and were provided by Animal Center of the National Institute for the Identification of Pharmaceuticals and Biological Products, Beijing. The breeding of the rats was the same as in test II.
The male rats each weighing 150±10 g were excised of bilateral spermaries and were fed low-calcium diet and offered deionized water for 60 days, thus made a model of osteoporosis.
Seventy of the castrated male rats were divided into groups and tested in the same manner as Test II but the days of administration were 52 days during the 60 days of test.
In this test, the measuring methods for serum Ca, P, AKP levels, the bone mineral density, the length of femur, wet weight, dry weight, ash weight, the calcium content and the biomechanics of femur were all the same as in test II.

[12] = after four weeks of Ca-supplementing

O=C(O)[C@H](O)[C@@H](O)CO [calcium L-threonate]
percentage of babies whose AKP reached the normal range [1, 12]: 90%
percentage of babies whose [Ca] × [P] reached the normal range [1, 12]: 100%
percentage of babies whose serum P reached the normal range [1, 12]: 100%
serum Ca change (in words) ([1]; before and after the test, P>0.05): no significant variation
serum P and AKP after test versus normal range (in words) ([1]; four weeks): raise the indexes to the normal range of value
serum P ([1]; four weeks after, before 3.19 ± 0.25 (threonate), 3.12 ± 0.20 (carbonate)): 4.50 ± 0.26
serum Ca ([1]; four weeks after, before 10.49 ± 0.39 (threonate), 10.51 ± 0.47 (carbonate)): 10.65 ± 0.35
[Ca] × [P] ([1]; four weeks after, before 33.4 ± 2.47 (threonate), 33.83 ± 2.17 (carbonate)): 47.34 ± 3.15
AKP ([1]; four weeks after, before 235.95 ± 7.89 (threonate), 235.25 ± 7.37 (carbonate)): 203.75 ± 11.46
K (rigidity parameter, calcified degree) ([2]; 100 mg element calcium/kg/d): 2.71 ± 0.36
Y (flexibility, tenacity) ([2]; 100 mg element calcium/kg/d): 4.1 ± 0.7
P (maximum of force at yielding point, femur strength) ([2]; 100 mg element calcium/kg/d): 7.9 ± 1.0
S (work to yield or break femur) ([2]; 100 mg element calcium/kg/d): 14.0
K (rigidity parameter, calcified degree) ([2]; 200 mg element calcium/kg/d): 2.75 ± 0.31
Y (flexibility, tenacity) ([2]; 200 mg element calcium/kg/d): 5.3 ± 1.4
P (maximum of force at yielding point, femur strength) ([2]; 200 mg element calcium/kg/d): 8.5 ± 0.8
Y (flexibility, tenacity) ([2]; 300 mg element calcium/kg/d): 5.9 ± 1.2
P (maximum of force at yielding point, femur strength) ([2]; 300 mg element calcium/kg/d): 9.6 ± 1.7
S (work to yield or break femur) ([2]; 300 mg element calcium/kg/d): 29.4
serum Ca ([3]; 200 mg calcium element): 2.33 ± 0.82 mmol/L
serum P ([3]; 200 mg calcium element): 1.52 ± 0.45 mmol/L
serum AKP (in Bessey-Loury unit) ([3]; 200 mg calcium element): 59.3 ± 14 U/L
serum Ca ([3]; 300 mg calcium element): 2.17 ± 0.82 mmol/L
serum P ([3]; 300 mg calcium element): 1.35 ± 0.34 mmol/L
serum AKP (in Bessey-Loury unit) ([3]; 300 mg calcium element): 43.1 ± 14 U/L
serum Ca effect (in words) ([3]; high and low dosage): approximate to that of the normal-control group but were much higher than those of the model group
serum AKP effect (in words) ([3]; mouse, in vivo): much lower than those of the model group
solubility in alcohol, ether and chloroform ([4]; alcohol, ether, chloroform): not in alcohol, ether and chloroform
solubility in water ([4]; water): can be solved in water
dry weight of femur ([5]; 200 mg calcium element): 0.121 ± 0.010 g
total calcium content ([5]; 200 mg calcium element): 36.23 mg
ash weight ([5]; 200 mg calcium element): 69.44 ± 6.62 mg
dry weight of femur ([5]; 300 mg calcium element): 0.131 ± 0.013 g
total calcium content ([5]; 300 mg calcium element): 38.90 ± 13.78 mg
ash weight ([5]; 300 mg calcium element): 74.73 ± 12.31 mg
Ca deposited in femur versus calcium gluconate (in words) ([5]; P<0.05): much higher than that of calcium gluconate
dry femur weight, ash weight and total calcium content (in words) ([5]; high and low dosage): markedly higher than those of the model group and were approximate to those of the normal-control group
bone mineral density F50 ([6]; 100 mg element calcium/kg/d): 0.255 ± 0.025 BMC/BW
bone mineral density F20 ([6]; 100 mg element calcium/kg/d): 0.297 ± 0.037 BMC/BW
bone mineral density F50 ([6]; 200 mg element calcium/kg/d): 0.269 ± 0.019 BMC/BW
bone mineral density F20 ([6]; 200 mg element calcium/kg/d): 0.308 ± 0.020 BMC/BW
bone mineral density F50 ([6]; 300 mg element calcium/kg/d): 0.274 ± 0.018 BMC/BW
bone mineral density F20 ([6]; 300 mg element calcium/kg/d): 0.327 ± 0.033 BMC/BW
Tmax [7]: 1.21 h
concentration at 0.5 h [7]: 23100 ± 2680 ng/mL
concentration at 1 h [7]: 35900 ± 4410 ng/mL
concentration at 2 h [7]: 74.04 ± 0.5 µg/mL
concentration at 3 h [7]: 46000 ng/mL
concentration at 4 h [7]: 17200 ng/mL
concentration at 6 h [7]: 9990 ng/mL
concentration at 8 h [7]: 4660 ng/mL
concentration at 12 h [7]: 2800 ng/mL
concentration at 16 h [7]: 4300 ng/mL
concentration at 24 h [7]: 3990 ng/mL
half-life [7]: 214 min
serum Ca ([8]; 100 mg element calcium/kg/d): 1.97 ± 0.52 mmol/L
serum P ([8]; 100 mg element calcium/kg/d): 1.87 ± 0.39 mmol/L
AKP level in serum (in Bessey-Loury unit) ([8]; 100 mg element calcium/kg/d): 88.3 ± 13.7 U/L
serum Ca ([8]; 200 mg element calcium/kg/d): 2.20 ± 0.60 mmol/L
serum P ([8]; 200 mg element calcium/kg/d): 1.78 ± 0.55 mmol/L
AKP level in serum (in Bessey-Loury unit) ([8]; 200 mg element calcium/kg/d): 59.2 ± 12.0 U/L
serum Ca ([8]; 300 mg element calcium/kg/d): 2.17 ± 0.62 mmol/L
serum P ([8]; 300 mg element calcium/kg/d): 1.48 ± 0.55 mmol/L
AKP level in serum (in Bessey-Loury unit) ([8]; 300 mg element calcium/kg/d): 56.1 ± 6.2 U/L
serum calcium effect (in words) ([8]; rat, in vivo): significantly higher than that of model group
breaking force (tibia) ([9]; 200 mg calcium element): 1.49 ± 0.38 kg
breaking force (tibia) ([9]; 300 mg calcium element): 1.59 ± 0.27 kg
breaking force of tibia (in words) ([9]; mouse, in vivo): significantly higher than those for the model group and were comparable with those for the normal-control group
kinetic change of serum levels and pharmaceutical dynamic parameters (in words) [10]: consistent with those of rats
K (calcification of bone) ([11]; 100 mg element calcium/kg/d): 2.05 ± 0.25
P (strength of femur) ([11]; 100 mg element calcium/kg/d): 7.6 ± 1.1
Y (flexibility, tenacity) ([11]; 100 mg element calcium/kg/d): 7.3 ± 1.6
S (work to break the bone) ([11]; 100 mg element calcium/kg/d): 29.7
K (calcification of bone) ([11]; 200 mg element calcium/kg/d): 2.27 ± 0.42
P (strength of femur) ([11]; 200 mg element calcium/kg/d): 8.7 ± 1.2
Y (flexibility, tenacity) ([11]; 200 mg element calcium/kg/d): 6.6 ± 1.1
S (work to break the bone) ([11]; 200 mg element calcium/kg/d): 28.3
K (calcification of bone) ([11]; 300 mg element calcium/kg/d): 2.52 ± 0.22
P (strength of femur) ([11]; 300 mg element calcium/kg/d): 9.3 ± 0.9
Y (flexibility, tenacity) ([11]; 300 mg element calcium/kg/d): 6.3 ± 1.0
S (work to break the bone) ([11]; 300 mg element calcium/kg/d): 28.7 ± 7.8
P,K,S values (in words) ([11]; rat, in vivo): markedly increased in contrast to those of the model group rats
